This note sets out measurements from PMC7792806, “Development of Second Generation Activity-Based Chemical Probes for Sirtuins” (Molecules, 2020).

For assay [1], the system named is SIRT1, SIRT2, SIRT3, SIRT5, and SIRT6. Put plainly: Labeling in recombinant sirtuin mixture, isoform selectivity. Format: biochemical, human. The protocol:
Figure 4 Labeling of SIRT5 by probe 2B. (A) Dose-dependent labeling of SIRT5 by probe 2B in recombinantly expressed, partially purified sirtuin mixture. SIRT1, SIRT2, SIRT3, SIRT5, and SIRT6 were mixed and incubated with 500 μM NAD^+ and increasing concentrations of 2B. The samples were incubated at 37 °C for 10 min and subjected to UV irradiation for 20 min, and then “click” conjugated to TAMRA-azide; (B) Chemical structure of H3K9Suc; (C) Peptide competition. The labeling of SIRT5 by probe 2B decreased with increasing concentrations of the competitor peptide, H3K9Suc.
(§1) Remarkably, probe 2C was also able to label individual sirtuin isoforms in cell lysates. HEK293 cells overexpressing human SIRT2 were lysed, and the lysate was subjected to the labeling by 10 μM probe 2C.
A typical labeling experiment was performed as follows: in a 0.7 mL Eppendorf tube, purified recombinant human sirtuin (10 μM) was incubated with NAD^+ (500 μM) and activity-based probe at 37 °C for 10 min. The sample was transferred to a clear-bottom 96-well plate, placed on ice, and irradiated at 365 nm with a UV-lamp in a cold room. […] Then, destained gel was analyzed with in-gel fluorescence scanning using a Biorad ChemiDoc MP imager (excitation 532 nm, 580 nm cut-off filter and 30 nm band-pass). […]

The target in the next assay is T1, SIRT5 (Homo sapiens, UniProt Q9NXA8).
T1 construct: SIRT5 (34-302); made in house
T1 sequence (Q9NXA8 34-302): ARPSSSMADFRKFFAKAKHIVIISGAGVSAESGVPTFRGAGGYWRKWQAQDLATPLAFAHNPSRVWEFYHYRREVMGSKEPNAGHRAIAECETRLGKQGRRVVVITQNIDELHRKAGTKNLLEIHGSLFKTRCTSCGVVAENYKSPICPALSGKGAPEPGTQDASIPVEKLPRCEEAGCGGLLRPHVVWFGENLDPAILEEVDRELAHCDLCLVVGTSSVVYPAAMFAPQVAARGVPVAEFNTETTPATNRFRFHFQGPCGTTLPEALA
Put plainly: Sirtuin inhibition assay (HPLC), SIRT5. It is filed as biochemical. The protocol:
(§2) Plasmids of SIRT1 (full length), SIRT2 (38-356), SIRT3 (102-399), and SIRT5 (34-302) were generous gifts from Dr. Hening Lin (Cornell University, Ithaca, NY, USA). SIRT6 was a gift from Cheryl Arrowsmith (Addgene plasmid #28271). The proteins were expressed and purified according to previously published protocols. The identity of the protein was confirmed by tryptic digestion followed by LC-MS/MS analysis performed at the Vermont Genetic Network (VGN) Proteomics Facility. Protein concentrations were determined by Bradford assay (Thermo Fisher Scientific, Rockford, IL, USA).
(§3) A typical reaction contained 500 μM NAD^+ and 500 μM peptide substrate (H3K9Ac for SIRT2, SIRT3 and SIRT6, p53K382Ac for SIRT1 and SIRT5) of varying concentrations of a small molecule probe in 100 mM phosphate buffer pH 7.5. The reactions were initiated by the addition of 10 μM of sirtuin and were incubated at 37 °C before being quenched by 8 μL of 10% TFA. The incubation time was controlled so that the conversion of substrate was less than 15%. The samples were then injected on an HPLC fitted to a Macherey-Nagel Nucleosil C18 column. NAD^+, NAM and AADPR (acetyl-ADP-ribose) peaks were resolved using a gradient of 0 to 20% methanol in 20 mM ammonium acetate. Chromatograms were analyzed at 260 nm. Reactions were quantified by integrating areas of peaks corresponding to NAD^+ and AADPR. Rates were plotted as a function of small molecule probe concentration, and points were fitted to the following equation:ν(%) = ν0(%) − [ν0(%)(10^x)/(10^x + IC50)](1) where ν(%) represents the turnover rate expressed as percent enzymatic activity remaining, and ν0(%) represents the uninhibited turnover rate expressed as an enzymatic activity of 100%. The variable x represents the log[probe] in nanomolar. IC50 values were derived from this equation.

Another assay concerns the target T2, SIRT3 (Homo sapiens, UniProt Q9NTG7).
T2 construct: SIRT3 (102-399); made in house
T2 sequence (Q9NTG7 102-399): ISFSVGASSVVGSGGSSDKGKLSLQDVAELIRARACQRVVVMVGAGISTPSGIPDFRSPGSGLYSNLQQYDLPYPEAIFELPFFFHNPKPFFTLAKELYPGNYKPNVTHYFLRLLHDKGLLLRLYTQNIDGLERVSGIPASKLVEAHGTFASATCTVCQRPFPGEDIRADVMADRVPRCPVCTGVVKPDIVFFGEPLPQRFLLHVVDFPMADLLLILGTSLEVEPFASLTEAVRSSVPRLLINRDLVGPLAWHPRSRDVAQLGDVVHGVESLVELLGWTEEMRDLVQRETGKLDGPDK
Put plainly: Sirtuin inhibition assay (HPLC), SIRT3. Format: biochemical. As to conditions: substrate H3K9Ac; 500 μM NAD+, 500 μM peptide, 10 μM sirtuin, pH 7.5, 37 °C. The protocol:
as §2, §3

Another assay addresses T3, SIRT2 (Homo sapiens, UniProt Q8IXJ6).
T3 construct: SIRT2 (38-356); made in house
T3 sequence (Q8IXJ6 38-356): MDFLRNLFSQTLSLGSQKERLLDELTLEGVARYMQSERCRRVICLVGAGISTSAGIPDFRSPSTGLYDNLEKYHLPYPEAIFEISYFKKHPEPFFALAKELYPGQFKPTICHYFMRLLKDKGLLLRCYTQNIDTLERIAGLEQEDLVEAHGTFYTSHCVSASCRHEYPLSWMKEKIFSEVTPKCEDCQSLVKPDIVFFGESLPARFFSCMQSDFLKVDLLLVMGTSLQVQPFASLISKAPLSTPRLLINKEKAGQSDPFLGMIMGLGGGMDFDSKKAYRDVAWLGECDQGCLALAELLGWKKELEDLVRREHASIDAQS
Put plainly: Sirtuin inhibition assay (HPLC), SIRT2. Format: biochemical. The protocol:
as §2, §3

Another assay concerns the target SIRT6H133Y (Homo sapiens, UniProt Q8N6T7, H133Y). Put plainly: Labeling of catalytically inactive mutant SIRT6H133Y. It is filed as biochemical. The protocol:
as §1
A typical labeling experiment was performed as follows: in a 0.7 mL Eppendorf tube, purified recombinant human sirtuin (10 μM) was incubated with NAD^+ (500 μM) and activity-based probe at 37 °C for 10 min. The sample was transferred to a clear-bottom 96-well plate, placed on ice, and irradiated at 365 nm with a UV-lamp in a cold room. Subsequently, ingredients of the “click-chemistry” including azide-fluor 545, CuSO4, reducing agent (tris(2-carboxyethyl)phosphine, TCEP) and stabilizing agent (tris[(1-benzyl-1H-1,2,3-triazol-4-yl)methyl]amine, TBTA) were added, and the sample was gently agitated at 250 rpm on a microshaker at room temperature for 30 min. Then, the sample was resolved by SDS-PAGE. To […] the signal to noise ratio, the gel was destained to eliminate non-specific binding of free dyes. This was done in a mixture of methanol/distilled water/acetic acid (v/v/v = 4/5/1) at ambient temperature for 4 h. Then, destained gel was analyzed with in-gel fluorescence scanning using a Biorad ChemiDoc MP imager (excitation 532 nm, 580 nm cut-off filter and 30 nm band-pass). Finally, Coomassie blue staining was applied to provide loading control.

Usually IC50 stands for the concentration needed to halve the response being measured. Low readings indicate greater potency in that assay, high ones weaker potency in that assay.

Chain of SIRT6H133Y (Q8N6T7 whole entry H133Y): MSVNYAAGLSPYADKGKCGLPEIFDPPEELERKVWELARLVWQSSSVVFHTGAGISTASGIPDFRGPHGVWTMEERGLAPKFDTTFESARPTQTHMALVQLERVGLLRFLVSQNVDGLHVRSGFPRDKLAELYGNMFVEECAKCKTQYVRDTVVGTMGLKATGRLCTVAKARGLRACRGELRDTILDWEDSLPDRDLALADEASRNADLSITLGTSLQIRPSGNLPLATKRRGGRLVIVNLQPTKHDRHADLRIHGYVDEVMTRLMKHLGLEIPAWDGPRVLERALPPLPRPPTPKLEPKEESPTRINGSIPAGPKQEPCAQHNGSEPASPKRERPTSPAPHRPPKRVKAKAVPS

Consider `C#CCCCC1(CCC(=O)N[C@@H](CCCCNC(=S)CCC(=O)O)C(=O)N[C@@H](C)C(=O)N[C@@H](C)C(=O)OC)N=N1` [Probe 2B], for which, in assay [1] (partially purified recombinant sirtuin mixture), the “labeling of other sirtuin isoforms in sirtuin mixture” value was “negligible labeling of the other sirtuin isoforms”. At SIRT5 (ratio of IC50s), the “increase of SIRT5 inhibition compared with 1B” value was about 1.7 fold. Moreover, the IC50 at SIRT3 is over 5 mM; against SIRT2 (substrate H3K9Ac, 500 μM NAD+, 500 μM peptide, 10 μM sirtuin, pH 7.5, 37 °C) it was over 5 mM.

For `C#CCCCC1(CCC(=O)N[C@@H](CCCCNC(=S)CCCCCCCCCCCCC)C(=O)N[C@@H](C)C(=O)N[C@@H](C)C(=O)OC)N=N1` [Probe 2C], the “isoforms labeled in sirtuin mixture” value in assay [1] was “highlighting SIRT1, SIRT2, and SIRT6”. Further, the “labeling of SIRT6H133Y” value at SIRT6H133Y is reported as “failed to label”. Besides, on SIRT5 (substrate p53K382Ac, 500 μM NAD+, 500 μM peptide, 10 μM sirtuin, pH 7.5, 37 °C, NI = Not inhibited), the IC50 was over 5 mM. This compound registered an IC50 on SIRT3 of over 2 mM. In addition, at SIRT2 (ratio of IC50s), the “increase of SIRT2 inhibition compared with 1C” value was 3 fold and the “selectivity for SIRT2 over SIRT6” value is listed as about 2 fold.
